Results published in patent publication US20040077634A1, “Treatment of diseases characterized by excessive or insufficient cell death” (priority 2001, published 2004).
Residues, ends and D or L forms follow the SMILES beside them. *: point of attachment. Cbz = O=C(OCc1ccccc1)*; CH2F = FC*

Columns and labels:
recombinant caspase-9 = biological target: T1, recombinant caspase-9 (Homo sapiens, UniProt P55211); experiment: Recombinant caspase-9 activity, cleavage of LEHD-AFC; format: biochemical
T1 sequence (P55211 1-315 limits assumed): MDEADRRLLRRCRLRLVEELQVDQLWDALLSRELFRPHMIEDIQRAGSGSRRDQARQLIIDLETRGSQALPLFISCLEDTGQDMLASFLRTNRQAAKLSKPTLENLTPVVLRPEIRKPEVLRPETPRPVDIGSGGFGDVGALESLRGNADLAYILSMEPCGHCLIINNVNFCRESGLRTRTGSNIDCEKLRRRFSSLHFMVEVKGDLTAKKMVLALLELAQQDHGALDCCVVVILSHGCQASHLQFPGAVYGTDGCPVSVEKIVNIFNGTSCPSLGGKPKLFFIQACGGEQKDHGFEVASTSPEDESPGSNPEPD
T1 sequence (P55211 331-416 limits assumed): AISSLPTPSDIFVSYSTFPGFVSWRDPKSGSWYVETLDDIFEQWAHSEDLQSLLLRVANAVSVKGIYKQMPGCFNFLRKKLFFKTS
Method: The inhibition of the DEVDase activity in the in vitro caspase activation system could be due to a direct inhibition of caspase-9, -3, or -7 activities, or to the inhibition of the apoptosome formation. To test if compounds a, f, and g were specific caspase inhibitors, recombinant caspase-3 and caspase-9 were incubated with the three compounds and the enzymatic activities of caspases were monitored by analysing the cleavage of the caspase-3 substrate DEVD-AFC or the caspase-9 substrate LEHD-AFC, respectively.

MCF-neo cells = experiment: TNF-induced cell death of MCF-neo cells; format: cell-based
Method: (§1) The ability of compound f to inhibit cell death was examined in MCF-neo and MCF-casp3 cells. […] To analyse the mechanism of the action of compound f in alive cells, MCF-casp3 cells were treated with TNF (5 ng/ml) in the presence of 50 μM compound f and the activity of caspase-3-like proteases was measured by a DEVDase enzyme assay.

MCF-casp3 cells = experiment: TNF-induced cell death of MCF-casp3 cells
Method: as §1

[1] = tested on: DEVDase (caspase-3-like protease); experiment: Inhibition of DEVDase in cytochrome c/dATP-activated Hela cytosolic extract (method 1); format: biochemical; conditions: compound final concentration 100 μM; 1 mM dATP and 1 μM cytochrome c; DEVD-AFC
Method: Hela cells are grown in large petri dishes until subconfluency. Cells are then harvested and washed in PBS. The cell pellet is resuspended in equal volumes of ice-cold isotonic lysisbuffer (SCA; 20 mM Hepes-KOH pH 7.5, 10 mM KCl, 1.5 mM MgCl2, 1 mM EDTA, 1 mM EGTA, 250 mM sucrose, 1 mM DTT, 10 μg/ml aprotinin, 1 μg/ml leupeptin, 1 μg/ml pepstatin A, 100 μg/ml peta-block), incubated on ice for 30 min and lysed by approx. 30 strokes of a dounce homogenizer. The lysate is then centrifuged at 750 g for 10 min, and the supernatant thereof at 10,000 g for 10 min and at 20,000 g for 30 min. The clarified supernatant is removed carefully and stored in aliquots at −80° C. Activation of endogene caspases is induced by addition of 1 mM dATP and 1 μM horse heart cytochrome c to cytosolic extract (protein concentration; 5-10 mg/ml) in the presence of DEVD-AFC and the compound (final concentration 100 μM). Activated DEVD'ases (AFC release) is measured by fluorometry in 96-well plates at 37° C. After end measurements 2× LSB-Mechaptoethanol are added to the samples for assessment of caspase processing by immunoblot analysis. Percent inhibition is calculated as follows: [formula]

recombinant caspase-3 = biological target: T2, recombinant caspase-3 (Homo sapiens, UniProt P42574); experiment: Recombinant caspase-3 activity, cleavage of DEVD-AFC; format: biochemical
T2 sequence (P42574 29-175 limits assumed): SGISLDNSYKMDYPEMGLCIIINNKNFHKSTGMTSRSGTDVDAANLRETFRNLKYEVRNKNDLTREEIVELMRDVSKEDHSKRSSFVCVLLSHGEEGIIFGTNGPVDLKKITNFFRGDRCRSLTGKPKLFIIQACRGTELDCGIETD
T2 sequence (P42574 176-277 limits assumed): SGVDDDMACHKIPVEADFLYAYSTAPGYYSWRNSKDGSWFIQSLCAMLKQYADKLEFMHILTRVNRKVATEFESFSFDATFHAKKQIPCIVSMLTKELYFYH
Method: To test if compounds a, f, and g were specific caspase inhibitors, recombinant caspase-3 and caspase-9 were incubated with the three compounds and the enzymatic activities of caspases were monitored by analysing the cleavage of the caspase-3 substrate DEVD-AFC or the caspase-9 substrate LEHD-AFC, respectively.

[2] = tested on: caspase-9, caspase-3 and caspase-7 processing; DFF45/ICAD and PARP cleavage; experiment: Processing of caspases and caspase substrates in Cc/dATP-stimulated cell extract, Western blotting; format: biochemical; conditions: cell extracts stimulated with Cc/dATP; Western blot; dose dependence
Method: Activation of endogene caspases is induced by addition of 1 mM dATP and 1 μM horse heart cytochrome c to cytosolic extract (protein concentration; 5-10 mg/ml) in the presence of DEVD-AFC and the compound (final concentration 100 μM). Activated DEVD'ases (AFC release) is measured by fluorometry in 96-well plates at 37° C. After end measurements 2× LSB-Mechaptoethanol are added to the samples for assessment of caspase processing by immunoblot analysis.
Next, the effect of the compounds on the processing of caspases and caspase substrates in the in vitro model system was analysed by Western blotting. Caspase-9, caspase-3 and caspase-7 were processed into p35, p17, and p20 active fragments, respectively, in response to Cc/dATP. Accordingly, Cc/dATP induced a threefold induction in DEVDase activity and cleavage of the caspase-3 substrates DFF45/ICAD and PARP.

[3] = biological target: T3, apoptosome complex (Apaf-1 and caspase-9) (Homo sapiens, UniProt O14727+P55211); experiment: Apoptosome formation: co-immunoprecipitation of Apaf-1 with caspase-9 in cell extract; format: binding; conditions: 1 μM zVAD-fmk, 1 hour with Cc/dATP prior to IP
T3 construct: Caspase-9 antibody precipitated practically all caspase-9 present in the cell extract; endogenous in cells; host or cells: cell extract
T3 sequence (O14727 1-1248): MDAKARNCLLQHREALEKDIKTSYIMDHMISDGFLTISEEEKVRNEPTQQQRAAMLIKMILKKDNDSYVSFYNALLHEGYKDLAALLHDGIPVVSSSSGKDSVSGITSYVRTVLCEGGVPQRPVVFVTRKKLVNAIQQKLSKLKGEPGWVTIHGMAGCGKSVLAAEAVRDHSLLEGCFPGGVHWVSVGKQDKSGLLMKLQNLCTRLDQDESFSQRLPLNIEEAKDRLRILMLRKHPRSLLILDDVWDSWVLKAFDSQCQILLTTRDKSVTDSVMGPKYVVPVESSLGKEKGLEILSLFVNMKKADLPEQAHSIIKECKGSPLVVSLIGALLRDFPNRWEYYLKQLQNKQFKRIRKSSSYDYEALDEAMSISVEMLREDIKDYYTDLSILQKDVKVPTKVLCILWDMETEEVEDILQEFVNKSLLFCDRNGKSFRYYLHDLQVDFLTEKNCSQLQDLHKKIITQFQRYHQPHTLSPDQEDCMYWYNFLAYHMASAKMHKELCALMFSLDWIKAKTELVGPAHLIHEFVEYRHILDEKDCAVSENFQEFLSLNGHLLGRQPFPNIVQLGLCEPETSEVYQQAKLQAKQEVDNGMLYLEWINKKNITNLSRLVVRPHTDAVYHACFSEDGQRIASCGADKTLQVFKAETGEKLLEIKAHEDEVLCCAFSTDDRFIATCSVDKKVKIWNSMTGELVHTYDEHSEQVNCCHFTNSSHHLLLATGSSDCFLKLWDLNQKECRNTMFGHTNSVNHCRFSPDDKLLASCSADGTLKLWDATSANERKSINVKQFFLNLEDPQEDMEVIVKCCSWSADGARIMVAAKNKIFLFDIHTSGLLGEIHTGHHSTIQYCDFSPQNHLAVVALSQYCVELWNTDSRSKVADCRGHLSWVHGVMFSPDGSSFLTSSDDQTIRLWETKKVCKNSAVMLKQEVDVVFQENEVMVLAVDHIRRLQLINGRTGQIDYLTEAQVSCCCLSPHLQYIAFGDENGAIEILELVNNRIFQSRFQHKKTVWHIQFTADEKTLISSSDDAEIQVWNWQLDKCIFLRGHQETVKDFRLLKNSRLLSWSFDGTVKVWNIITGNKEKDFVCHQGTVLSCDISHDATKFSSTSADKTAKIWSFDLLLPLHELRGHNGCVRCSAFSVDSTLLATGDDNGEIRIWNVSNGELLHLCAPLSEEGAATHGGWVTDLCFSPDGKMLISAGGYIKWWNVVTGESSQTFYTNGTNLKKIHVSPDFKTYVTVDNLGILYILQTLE
T3 sequence (P55211 1-416): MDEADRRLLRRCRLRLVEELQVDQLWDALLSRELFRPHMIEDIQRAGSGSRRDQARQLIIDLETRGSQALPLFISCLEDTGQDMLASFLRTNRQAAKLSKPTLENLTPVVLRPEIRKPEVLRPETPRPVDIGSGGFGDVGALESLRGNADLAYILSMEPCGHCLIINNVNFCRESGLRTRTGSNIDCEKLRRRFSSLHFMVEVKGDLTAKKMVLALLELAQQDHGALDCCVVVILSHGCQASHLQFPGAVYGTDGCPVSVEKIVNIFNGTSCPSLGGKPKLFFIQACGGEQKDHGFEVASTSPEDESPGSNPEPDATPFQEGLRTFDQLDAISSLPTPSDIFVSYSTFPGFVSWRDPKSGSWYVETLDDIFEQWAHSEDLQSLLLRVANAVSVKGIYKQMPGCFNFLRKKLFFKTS
Method: Next, it was tested whether compound f interferes with the formation of apoptosome complex in response to Cc/dATP. Cell extracts were incubated with Cc/dATP in the presence or absence of 100 μM compound f or 1 μM zVAD-fmk for 1 hour prior to the immunoprecipitation (IP) of caspase-9. […] Hsp90, which has been proposed to associate with Apaf-1 and prevent oligomerization and caspase-9 recruitment, was not co-immunoprecipitated with caspase-9.

[4] = 25 to 100 μM, DEVD-AFC substrate
[5] = 25 to 100 μM, LEHD-AFC substrate

## CC(=O)N[C@@H](CC(=O)O)C(=O)N[C@@H](CCC(=O)O)C(=O)N[C@H](C(=O)N[C@H](C=O)CC(=O)O)C(C)C [DEVD-CHO, reference compound]
Recombinant caspase-9; 0.1 μM DEVD-CHO
  inhibition of recombinant caspase-9 activity: almost total inhibition
MCF-neo cells; 1 ng/ml TNF, 200 μM DEVD-CHO
  cell death induced by TNF: blocked
MCF-neo cells; 5 ng/ml TNF, 200 μM DEVD-CHO
  protection against TNF: significant protection
MCF-casp3 cells; 1 ng/ml TNF, 200 μM DEVD-CHO
  cell death induced by TNF: blocked
MCF-casp3 cells; 5 ng/ml TNF, 200 μM DEVD-CHO
  protection against TNF: significant protection

## COC(=O)c1cc(NC(=O)Nc2cccc(C(F)(F)F)c2)c(O)cc1[N+](=O)[O-] [a, [N-(2-Hydroxy-5-methoxycarbonyl-4-nitrophenyl)-N′-(3-trifluoromethylphenyl)]urea]
[1]
  % Inhibition: 80%
Recombinant caspase-3; [4]
  inhibition of recombinant caspase-3 activity: failed to inhibit
Recombinant caspase-9; [5]
  inhibition of recombinant caspase-9 activity: failed to inhibit
[2]
  inhibition of caspase-9, -3 and -7 processing and DFF45/ICAD and PARP cleavage: dose-dependent inhibition

## CN1[C@H]2CC[C@@H]1[C@@H](c1nc(-c3cccs3)no1)[C@@H](c1ccc3ccccc3c1)C2.Cl [c, (1R,2S,3S)-2-[3-(2-Thienyl)-1,2,4-oxadiazol-5-yl]-3-(2-naphthyl)-tropane hydrochloric acid salt]
[1]
  % Inhibition: 60%
other
  melting point: 149 to 150 °C

## c1ccc(-c2cccc(-n3cnc4ccccc43)c2)cc1 [d, 1-(3-Biphenyl)-benzimidazole]
[1]
  % Inhibition: 58%

## O=c1onc2cnc3cc([N+](=O)[O-])ccc3n12 [e, 7-Nitro-1,2,4-oxadiazolo[3,4-d]benz[b]-1,4-diazin-1-one]
[1]
  % Inhibition: 63%

## O=C(Nc1cccc(C(F)(F)F)c1)Nc1ccc(O)cc1O [g, [N-(2,4-Dihydroxyphenyl)-N′-(3-trifluoromethylphenyl)]urea]
[1]
  % Inhibition: 74%
Recombinant caspase-3; [4]
  inhibition of recombinant caspase-3 activity: failed to inhibit
Recombinant caspase-9; [5]
  inhibition of recombinant caspase-9 activity: failed to inhibit
[2]
  inhibition of caspase-9, -3 and -7 processing and DFF45/ICAD and PARP cleavage: dose-dependent inhibition

## COC(=O)C[C@H](NC(=O)[C@H](C)NC(=O)[C@@H](NC(=O)OCc1ccccc1)C(C)C)C(=O)CF [zVAD-fmk, reference compound] (Cbz-Val-Ala-Asp(OMe)-CH2F)
Recombinant caspase-3; 1 μM zVAD-fmk
  inhibition of recombinant caspase-3 activity: almost total inhibition
Recombinant caspase-9; 1 μM zVAD-fmk
  inhibition of recombinant caspase-9 activity: almost total inhibition
[3]
  co-immunoprecipitation of Apaf-1 with caspase-9: efficiently co-immunoprecipitated
MCF-neo cells; 50 μM zVAD-fmk
  TNF-induced death: blocked completely
MCF-casp3 cells; 50 μM zVAD-fmk
  TNF-induced death: blocked completely
